In brackets after ≈: the same amount, converted by molar mass.
Assays:
HeLa = assay: Cytotoxic activity against HeLa S3 cells; format: functional, cell-based; conditions: Homo sapiens
L1210 (1565) [1] = assay: Cytotoxic activity against L-1210 parental cell line; format: functional, cell-based, Mus musculus
L1210 (1565) [2] = assay: Cytotoxic activity against adriamycin (ADR) resistant L-1210 cell line; format: functional, cell-based, Mus musculus
[3] = Relative resistance value of Adriamycin resistant L-1210/L-1210 parental cell line; format: functional
L1210 (1565) [4] = assay: cytotoxic activity against adriamycin (ADR) resistant L-1210 cell line; format: functional, cell-based, Mus musculus

Compound: C/C=C/C(=O)OCC1=CCC(C)(C)CC1=O
- IC50 (HeLa): 4.7 µg/mL (≈ 21.1 µM)

Compound: COc1cccc2c1C(=O)c1c(O)c3c(c(O)c1C2=O)C[C@@](O)(C(C)=O)C[C@@H]3O[C@H]1C[C@H](N)[C@H](O)[C@H](C)O1.Cl [DAUNORUBICIN HYDROCHLORIDE]
- IC50 (L1210 (1565) [1]): 0.016 nM ml-1
- IC50 (L1210 (1565) [2]): 0.147 nM ml-1
- Ratio [3]: 9.2

Compound: CC1(C)CC=C(CI)C(=O)C1
- IC50 (HeLa): 2.3 µg/mL (≈ 8.71 µM)

Compound: CC(=O)OCC1=CCC(C)(C)CC1=O
- IC50 (HeLa): 23.5 µg/mL (≈ 120 µM)

Compound: COc1cccc2c1C(=O)c1c(O)c3c(c(O)c1C2=O)C[C@@](O)(C(C)=O)C[C@@H]3OC1CC(NC(=O)OCC2=CCC(C)(C)CC2=O)C(O)C(C)O1 (some centres undefined)
- IC50 (HeLa): 0.0096 µg/mL (≈ 0.0136 µM)
- IC50 (L1210 (1565) [1]): 0.038 nM ml-1
- IC50 (L1210 (1565) [2]): 0.14 nM ml-1
- Ratio [3]: 3.7

Compound: COc1cccc2c1C(=O)c1c(O)c3c(c(O)c1C2=O)C[C@@](O)(C(=O)CO)C[C@@H]3O[C@H]1C[C@H](N)[C@H](O)[C@H](C)O1 [DOXORUBICIN]
- IC50 (L1210 (1565) [1]): 0.022 nM ml-1
- IC50 (L1210 (1565) [4]): 0.315 nM ml-1
- Ratio [3]: 14.1

Compound: CC1(C)CC=C(CO)C(=O)C1
- IC50 (HeLa): > 100 µg/mL

Source: ChEMBL document CHEMBL1128855, “Design and synthesis of an antitumor prodrug released by the reaction with sulfhydryl compounds” (Bioorg Med Chem Lett, 1995)
